Consider 2 compounds from patent publication US20190002492A1, “DERIVATIVES OF ALLOPR[…] OF EPIALLOPR[…] USES THEREOF FOR TREATING A NEUROPATHOLOGICAL CONDITION” (UNIVERSITE DE STRASBOURG, priority 2011, published 2019).

For assay [1], the system named is Sprague-Dawley rats. In words: Von Frey mechanical nociceptive sensitivity threshold in healthy animals not treated with vincristine. The assay is classed as in vivo, rat. The settings on record: 4 mg/kg every 2 days for 2 weeks. An excerpt:
(§1) Adult male Sprague-Dawley rats weighing between 250 and 300 g were used. They came from the company Janvier (le Genest St. Isle, France). The care and handling of the animals were done in accordance with the guidelines from the Council of the European Community (86/609/EC) and in accordance with the ethical rules of the International Association for the Study of Pain. The protocol used to carry out the in vivo studies was subject to examination and authorization granted to Prof. Mensah-Nyagan's team by the Alsatian Department of the Veterinary Public Health Guide for the Care and Use of Laboratory Animals (Approval number 67-186). The rats were housed under standard conditions with a photoperiod of 12 h day/12 h night, with unlimited food and water. The animals spent one acclimatization week before being integrated into the experimental protocols. Each animal was examined daily to detect any signs of deterioration of its health condition, such as dramatic weight loss, a decrease in appetite during chemotherapy and pharmacological treatment.
(§2) The allopregnanolone in the derivatives according to the invention (BR053 and BR297) were diluted in a hydroxypropylcellulose (HPC) solution (0.3%) used as excipient. The curative treatment with allopregnanolone, BR053 or BR297 began 3 days after the vincristine cycles. Each of these compounds (allopregnanolone, BR053 or BR297) was administered by the intraperitoneal route at a dose of 4 mg/kg at a rate of one injection every 2 days. Thus, over the total duration of the in vivo experiments (14 days), each animal received 7 injections of excipient, allopregnanolone, BR053 or BR297, based on its group, at a dose of 4 mg/kg. The animals were sacrificed 24 hours after the last behavioral test (28th day) to remove tissues that will be used for later histology and electrophysiology studies.
The mechanical nociceptive sensitivity threshold was evaluated in rats placed in individual Plexiglas boxes (30×30×25 cm) mounted on a raised mesh support thereby allowing access to the surface or arch of the back feet. The presence of allodynia (exaggerated response following a normally […] stimulation) was measured using a series of calibrated von Frey filaments (1, 2, 4, 6, 8, 10, 15, 26, 100, 180 and 300 g; Stoelting, Wood Dale, Ill., USA), which were applied on the sole of the back foot of the animal with increasing force until the filament twisted. The filament was applied for a period of 1 to 2 seconds and the procedure was repeated 5 times at 4-5 second intervals. The withdrawal threshold of the foot was calculated by taking the average of 10 repeated stimuli (in grams) that caused a reflex to withdraw the foot. Only vigorous and fast withdrawals of the foot were considered positive. […]

Assay [2] relates to SH-SY5Y human neuroblastomas. Briefly: Neuroprotection against cell death caused by oxidizing stress (H2O2), MTT readout. The settings on record: H2O2 1 mM; for Neuroprotective effect against cell death caused by oxidizing stress: SH-SY5Y cultures, 24 or 48 hours, MTT; for Protection of human neuroblastomas from cell death caused by H2O2 (in words): SH-SY5Y. The assay is classed as cell-based. Set-up: key to Neuroprotective effect against cell death caused by oxidizing stress: −: no effect; +: low effect; ++: high effect; +++: very high effect. The protocol: The cellular model used to carry out the in vitro experiments is a line of human neuroblastomas called line SH-SY5Y.
The human neuroblastoma is a cultivated at 37° C. in a humidity saturated atmosphere, under 5% CO2 in a culture medium formed by DMEM with an added 10% (v/v) fetal calf serum, 5% (v/v) horse serum, 2 mM glutamax and 1% (v/v) of the penicillin/streptomycin mixture.
The human neuroblastomas were incubated with the culture medium alone or containing the chief inducing agent of oxidizing stress, hydrogen peroxide (H2O2), at various concentrations in order to determine the concentrations of H2O2 and the incubation times causing the death of a significant percentage of the cells. The neuroprotective properties of the BR053, BR338, BR297 and BR351 derivatives were determined by pretreating the SH-SY5Y cells with the culture medium alone or respectively containing the BR053, BR338, BR297 or BR351 derivative. After pretreatment, each of these categories of cells was integrated for 24 hours or 48 hours with the following solutions: (i) culture medium; (ii) culture medium containing only the BR053, BR338, BR297 or BR351 derivative; (iii) culture medium containing only H2O2 at a concentration of 1 mM, which causes a high percentage of cell death; (iv) culture medium containing both H2O2 (1 mM) and one of the BR053, BR338, BR297 or BR351 derivatives.
10 μl of a stock solution of tetrazolium, abbreviated MTT, at 3.6 mM was added in each well and the incubation continued in darkness for 5 h at 37° C. After cell lysis, spectrophotometer measurements at 595 nm were carried out to determine the survival and cell density under each of the conditions described above.

Assay [3] relates to Sprague-Dawley rats. Briefly: Von Frey filament test, painful neuropathy caused by vincristine. The settings on record: rats with vincristine neuropathy, 4 mg/kg i.p. every 2 days for 2 weeks. It is filed as in vivo, rat.
From the text: as §1
Vincristine sulfate (VINC), purchased from Sigma-Aldrich (St. Louis, Mo., USA), was dissolved in a physiological saline solution (NaCl 0.9%) at 0.1 mg/ml and stored at 4° C. The saline solution (NaCl 0.9%) is used as excipient. The VINC is injected daily by intraperitoneal injection (i.p.), in 2 cycles of 5 days separated by 2 days off, at a concentration of 0.1 mg/kg/day. The control animals were injected by i.p. (1 ml/kg) with the excipient using a similar protocol.
as §2
The mechanical nociceptive sensitivity threshold was evaluated in rats placed in individual Plexiglas boxes (30×30×25 cm) mounted on a raised mesh support thereby allowing access to the surface or arch of the back feet. The presence of allodynia (exaggerated response following a normally […] stimulation) was measured using a series of calibrated von Frey filaments (1, 2, 4, 6, 8, 10, 15, 26, 100, 180 and 300 g; Stoelting, Wood Dale, Ill., USA), which were applied on the sole of the back foot of the animal with increasing force until the filament twisted. The filament was applied for a period of 1 to 2 seconds and the procedure was repeated 5 times at 4-5 second intervals. The withdrawal threshold of the foot was calculated by taking the average of […] repeated stimuli (in grams) that caused a reflex to withdraw the foot. Only vigorous and fast withdrawals of the foot were considered positive. In the experiments, the naïve animals never responded to the 4 g filament and responded 25-30% of the time to the 15 g filament.

On to `C=CCO[C@H]1CC[C@]2(C)C3CC[C@@]4(C)C(CC[C@@H]4C(C)=O)C3CC[C@H]2C1` (some centres unmarked) [BR297], for which the “Anti-nociceptive effect in healthy animals” value in the assay with Sprague-Dawley rats [1] is on record as “does not cause any anti-nociceptive effect”. For the same compound, in assay [2], the “Neuroprotective effect against cell death caused by oxidizing stress” value is “++” and the “Protection of human neuroblastomas from cell death caused by H2O2 (in words)” value is “capable of protecting human neuroblastomas from the cell death”. Further, in the assay with Sprague-Dawley rats [3], the “Effect on mechanical allodynia and mechanical hyperalgesia” value is recorded as “eliminates the symptoms”.

Turning to `CC(=O)[C@H]1CCC2C3CC[C@H]4C[C@@H](O)CC[C@]4(C)C3CC(=O)[C@@]21C` (some centres unmarked) [BR053], in the assay with Sprague-Dawley rats [1], the “Anti-nociceptive effect in healthy animals” value is listed as “does not cause any anti-nociceptive effect”. Also, in assay [2], the “Neuroprotective effect against cell death caused by oxidizing stress” value was “+++” and the “Protection of human neuroblastomas from cell death caused by H2O2 (in words)” value is listed as “capable of protecting human neuroblastomas from the cell death”. Besides, in the assay with Sprague-Dawley rats [3], the “Effect on mechanical allodynia and mechanical hyperalgesia” value is listed as “eliminates the symptoms”.
